According to patent US9193744B2, “Heterocyclic nuclear hormone receptor modulators” (AbbVie Inc., priority 2012, dated 2015):
Like-named read-outs stand apart in the source and are kept apart here.

Assays:
[1] = target: T1, Glucocorticoid Receptor (GR) (Homo sapiens, UniProt P04150); experiment: GR Fluorescence Polarization Assay (PolarScreen Glucocorticoid Receptor Competitor Assay, Red); settings: fluorescence polarization binding ranges
T1 construct: purchased Invitrogen P2893
T1 sequence (P04150 1-777): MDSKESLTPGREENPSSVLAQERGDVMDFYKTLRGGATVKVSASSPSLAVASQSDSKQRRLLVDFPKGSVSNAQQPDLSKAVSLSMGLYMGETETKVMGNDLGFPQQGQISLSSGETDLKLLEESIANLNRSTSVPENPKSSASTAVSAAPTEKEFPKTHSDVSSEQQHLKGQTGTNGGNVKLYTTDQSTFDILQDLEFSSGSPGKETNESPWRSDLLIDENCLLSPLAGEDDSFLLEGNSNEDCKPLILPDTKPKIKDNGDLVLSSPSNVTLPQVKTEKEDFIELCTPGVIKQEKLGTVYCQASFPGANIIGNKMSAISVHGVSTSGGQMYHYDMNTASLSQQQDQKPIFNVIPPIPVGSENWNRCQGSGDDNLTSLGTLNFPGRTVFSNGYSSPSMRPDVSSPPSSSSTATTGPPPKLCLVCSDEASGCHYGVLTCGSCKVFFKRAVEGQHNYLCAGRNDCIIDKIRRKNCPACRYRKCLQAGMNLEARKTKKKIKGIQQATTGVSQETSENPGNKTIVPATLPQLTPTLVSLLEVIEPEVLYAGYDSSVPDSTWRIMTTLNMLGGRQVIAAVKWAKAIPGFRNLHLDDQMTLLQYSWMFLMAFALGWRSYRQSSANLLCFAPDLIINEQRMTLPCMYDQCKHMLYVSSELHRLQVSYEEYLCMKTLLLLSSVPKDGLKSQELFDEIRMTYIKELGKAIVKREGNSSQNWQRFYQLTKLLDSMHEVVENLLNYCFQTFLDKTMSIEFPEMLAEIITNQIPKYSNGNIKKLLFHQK
Procedure, shortened: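 Competitive fluorescence polarization using a red fluorescent glucocorticoid tracer and GR in kit buffer. Compounds in 1:4 DMSO serial dilution, incubated with tracer and receptor overnight at 4° C before polarization read-out.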

IL-6 = experiment: A549 Cell Assay to Measure Inflammation Markers (inhibition of IL-1β-induced IL-6); assay type: cell-based; settings: A549 cells, read-out: A549 cell assay
Procedure, shortened: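 A549 cells pre-incubated 1 h with compound (10-point dilution, 0.1% DMSO final) in charcoal-stripped serum medium, then stimulated 4 h with 1 ng/mL IL-1β at 37° C. Supernatant IL-6 measured by MSD immunoassay; IC50 and Emax relative to 1 μM prednisolone as 100% inhibition; viability checked by CellTiter-Glo.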

OCN = experiment: MG-63 Cell Assay to Measure Bone Markers (inhibition of Vitamin K/Vitamin D-induced OCN); assay type: cell-based; settings: Homo sapiens, MG63 cells
Protocol: MG-63 Cell Assay to Measure Bone Markers
MG-63 cells were cultured in culture media containing ascorbic acid (DMEM/F12 supplemented with 10% FBS, 1% HEPES, 100 U/mL-100 μg/mL Pen-Strep, and 100 μg/mL of ascorbic acid) for, minimally, 1 week before study. MG-63 cells were seeded (4E4 cells/well) in 96-well assay plates in culture medium (200 μL/well.) After overnight culture in an incubator set to 37° C., 4.9% CO2, and 90% humidity, media was removed from adherent cells by aspiration and replaced with 100 μL/well assay medium, DMEM/F12 supplemented with 5% Charcoal Stripped Serum, 1% HEPES, 100 U/mL-100 μg/mL Pen-Strep, and 100 μg/mL of ascorbic acid. Compounds were prepared with DMSO and serial diluted (1:3, 1:4, or 1:5) with DMSO in dilution plate(s) to give 10 dilution points for each compound tested. Further dilution (1:250) of compound was made into assay medium and 50 μL/well diluted drug or DMSO/media control was applied to cells. After a 1 h pre-incubation in a temperature, CO2, and humidity controlled incubator, set to 37° C., 50 μL/well of 40 nM Vitamin K and 400 nM Vitamin D that were diluted in assay media were applied to plates. Assay plates, with a final volume of 200 μL/well and final concentrations of 0.1% DMSO, 10 nM Vitamin K, and 100 nM Vitamin D, were returned to incubator for overnight culture. Next, plates were spun at 183 g (1000 rpm in Beckman/Coulter Allegra 6KR centrifuge) for 10 min. Cell-free supenatant (150 μL/well) was collected and OCN was measured by MSD kit, following protocol of manufacturer, and using MSD SECTOR Imager 6000 instrument. Potency of drug to inhibit OCN was determined using the percent reduction of measured OCN in wells with drug compared to control wells without drug, and relative to (100% inhibition) positive control sample of 10 μM prednisolone. Results were represented as IC50 and Emax values. To verify that viable cell numbers were similar across plate(s), and not confounding compound IC50 data interpretation, the remaining 50 μL/well of cells and media (after removal of supernatant) were used to run Cell Titer-Glo Assay per directions of manufacturer.

| IC50 [1] [nM] | IC50 (IL-6; Homo sapiens) [nM] | IC50 (OCN) [nM] | IC50 (IL-6) [nM] | Compound |
| --- | --- | --- | --- | --- |
| < 100 | < 100 | < 100 |  | CC[C@@]12CC[C@@](O)(C(F)(F)F)C[C@@H]1CCCc1cc3c(cnn3-c3ccc(F)cc3)cc12 (racemic) [Example 1, (3S,4aS,12bR)-12b-Ethyl-9-(4-fluoro-phenyl)-3-trifluoromethyl-1,2,3,4,4a, 5,6,7,9,12b-decahydro-9,10-diaza-benzo[3,4]cyclohepta[1,2-f]inden-3-ol; compound with (3R,4aR,12bS)-12b-ethyl-9-(4-fluoro-phenyl)-3-trifluoromethyl-1,2,3,4,4a,5,6,7,9,12b-decahydro-9,10-diaza-benzo[3,4]cyclohepta[1,2-f]inden-3-ol] |
| < 100 | 100 to 1000 | < 100 |  | CCC[C@]1(O)CC[C@@]2(CC)c3cc4cnn(-c5ccc(F)cc5)c4cc3CCC[C@@H]2C1 (racemic) [Example 4, (3S,4aR,12bR)-12b-Ethyl-9-(4-fluoro-phenyl)-3-propyl-1,2,3,4,4a,5,6,7,9,12b-decahydro-9,10-diaza-benzo[3,4]cyclohepta[1,2-f]inden-3-ol; compound with (3R,4aS,12bS)-12b-ethyl-9-(4-fluoro-phenyl)-3-propyl-1,2,3,4,4a,5,6,7,9,12b-decahydro-9,10-diaza-benzo[3,4]cyclohepta[1,2-f]inden-3-ol] |
| < 100 | < 100 | < 100 |  | COC[C@@]1(O)CC[C@@]2(Cc3ccccn3)c3cc4cnn(-c5ccc(F)cc5)c4cc3CCC[C@H]2C1 (racemic) [Example 11] |
| < 100 | > 10000 | > 10000 |  | CC[C@@]12CC[C@](O)(COC)C[C@@H]1CCCc1cc3[nH]ncc3cc12 (racemic) [Example 14, (3R,4aS,12bR)-12b-Ethyl-3-methoxymethyl-1,2,3,4,4a,5,6,7,9,12b-decahydro-9,10-diaza-benzo[3,4]cyclohepta[1,2-f]inden-3-ol; compound with (3S,4aR,12bS)-12b-ethyl-3-methoxymethyl-1,2,3,4,4a,5,6,7,9,12b-decahydro-9,10-diaza-benzo[3,4]cyclohepta[1,2-f]inden-3-ol] |
| < 100 | < 100 | 100 to 1000 |  | CC[C@@]12CC[C@@](O)(C(F)(F)F)C[C@@H]1CCCc1cc3c(cnn3-c3ccc(F)cc3)cc12 (single isomer, unassigned) [Example 3] |
| < 100 | 100 to 1000 | > 10000 |  | CCC[C@]1(O)CC[C@@]2(CC)c3cc4cnn(-c5ccc(F)cc5)c4cc3CCC[C@@H]2C1 (single isomer, unassigned) [Example 5] |
| < 100 | < 100 | > 10000 |  | CC[C@@]12CC[C@@](O)(COC)C[C@H]1CCCc1cc3c(cnn3-c3ccc(F)cc3)cc12 (single isomer, unassigned) [Example 7] |
| < 100 | 100 to 1000 | > 10000 |  | CCOC[C@]1(O)CC[C@@]2(CC)c3cc4cnn(-c5ccc(F)cc5)c4cc3CCC[C@@H]2C1 (single isomer, unassigned) [Example 9] |
| < 100 | < 100 | < 100 |  | COC[C@@]1(O)CC[C@@]2(Cc3ccccn3)c3cc4cnn(-c5ccc(F)cc5)c4cc3CCC[C@H]2C1 (single isomer, unassigned) [Example 12] |
| < 100 | < 100 | < 100 |  | COC[C@]1(O)CC[C@]2(Cc3ccccn3)c3cc4cnn(-c5ccc(F)cc5)c4cc3CCC[C@@H]2C1 (single isomer, unassigned) [Example 13] |
| < 100 |  |  | 100 to 1000 | (2S,3R,4aS,12bS)-12b-ethyl-9-(4-fluorophenyl)-3-(trifluoromethyl)-1,2,3,4,4a,5,6,7,9,12b-decahydrobenzo[6,7]cyclohepta[1,2-f]indazole-2,3-diol [Example 120] |
